Results reported in patent US20020049161A1, “Pharmaceutical combination preparations containing erythropoietin and iron preparations” (Roche Diagnostics GmbH, priority 1995, published 2002).

What was measured:
hemodialysis patients = experiment: Iron status and safety diagnostic parameters in hemodialysis patients under rhEPO/iron therapy; assay type: in vivo, human
Protocol: When conducting the combination therapy using the combination preparation according to the invention, the maximum weekly dosage can be concluded in a quite simple fashion by determining the diagnostic parameters for the iron status, particularly the iron, transferrin, transferrin saturation and ferritin parameters.
Preferably, the ferritin concentration is at least 125 μg/l, particularly at least 150 μg/l, and up to 270 μg/l at maximum, especially up to 250 μg/l at maximum. Advantageously, the iron concentration is between 10-20 μmol/l (corresponding to about 56-112 μg/dl) and the transferrin concentration between […] (corresponding to about 240-480 mg/dl) The transferrin saturation is defined as the ratio of serum/plasma iron concentration to serum/plasma transferrin concentration (multiplied by a correction factor of 1.41). It is a non-dimensional figure not depending on the patient's hydration condition. The transferrin saturation is calculated according to the formula: […]
In order to safely exclude undesirable side effects, the acute phase parameter CRP (5 mg/l±100%) [CRP=C reactive protein) is measured, with CRP currently being regarded as the best protein marker of inflammatory reactions. In addition, the liver parameters GPT (glutamate pyruvate transaminase), GOT (glutamate oxalic acetate transaminase) and γ-GT (γ-glutamyltransferase) may be determined, which should fall within the following ranges: (determination at 37° C.): GPT: <50 U/l; GOT: <50 U/l; γ-GT: <40 U/l, with the GPT parameter currently ranking first in liver diagnostics.
The determination of the iron status is effected by analyzing samples of body fluids (blood, serum, urine, etc.) from the patients in question. For the determination of the iron status, particularly the concentrations of iron, transferrin, ferritin, transferrin receptor, the transferrin saturation, and the transferrin/ferritin saturation are determined. With hemodialysis patients, the iron, transferrin, ferritin and transferrin saturation parameters are preferably determined according to per se common analytical methods. […]

anemia patients = experiment: Iron status and safety diagnostic parameters in anemia patients under rhEPO/iron therapy; assay type: in vivo, human
Protocol: When conducting the combination therapy using the combination preparation of the invention to treat anemia, the weekly maximum dosage can be concluded in a quite simple fashion by determining the diagnostic parameters transferrin receptor (TfR), ferritin and the ratio of TfR to ferritin.
Advantageously, the TfR concentration is between 1500-2500 μg/l. The concentration ratio of TfR (in μg/l) to ferritin (in μg/l) is particularly in the range of 15-35, preferably at values above 20.
In order to safely exclude undesirable side effects, the acute phase parameter CRP (2-10 mg/l) [CRP=C-reactive protein) is measured. In addition, the liver parameter GPT (glutamate pyruvate transaminase) may be determined, which should be <50 U/l at 37° C. (<30 U/l at 25° C.). Furthermore, the hematological control parameters such as hematocrit (fraction of red blood cells in total volume) or the increase in hypochromic erythrocytes may optionally be utilized, wherein the reticulocytes may increase to a value of up to 15/1000-30/1000. The typical hemoglobin concentration is about 12-18 g/dl.
The determination of the iron status is effected by analyzing samples of body fluids (blood, serum, urine, etc.) from the patients in question. For the determination of the iron status, particularly the concentrations of iron, transferrin, ferritin, transferrin receptor, the transferrin saturation, and the transferrin/ferritin saturation are determined. With hemodialysis patients, the iron, transferrin, ferritin and transferrin saturation parameters are preferably determined according to per se common analytical methods. In particular, the determination of the transferrin/ferritin saturation value is relevant. In the case of anemia patients whose anemia has not been caused by hemodialysis, the ferritin concentration and the concentration of transferrin receptor are determined above all. In particular, the determination of the ratio of transferrin receptor to ferritin (transferrin receptor/ferritin saturation value) is relevant.
In addition, the serum ferritin level is determined. Ferritin is an iron-storing glycoprotein of which tissue-typical isoferritins are existing and which can be determined in the serum by immunological means, e.g., by a radioimmunoassay (RIA) or by turbidimetric methods as well. The ferritin value is a measure for iron storage in the tissue. In most of the laboratories, the normal range is between 30 and 300 ng/ml, and the geometrical mean value is 88 in males and 49 in females. The serum ferritin values are in close relationship to the total iron reserve of the body. Therefore, decreased serum ferritin levels are found only in case of iron deficiency. Increased levels are found in case of iron overloading. Likewise, increased serum ferritin levels are found in case of liver lesions or in association with some types of neoplasia, where ferritins may be bound to acute phase proteins. Similarly, the serum transferrin receptor may be determined using an enzyme-enhanced immune absorption test (enzyme-linked immunosorbent assay=ELISA), wherein a monoclonal antibody against the soluble receptor is used. The reference range is between 0.5-3 mg/l. The level is increased in case of slight deficiency in the iron depots. The concentrations of specific erythrocyte ferritins may be determined in order to characterize the iron depots, particularly if the serum ferritin cannot be utilized in case of tissue lesions or due to acute phase reactions.

[1] = Patient B (hemodialysis), 5,000 U rhEPO three times a week over 3 weeks
[2] = Patient E (anemia), 5,000 U rhEPO three times a week over 3 weeks
[3] = Patient F (anemia), iron infusions omitted, within 3 weeks

recombinant human erythropoietin [rhEPO]
ferritin value decreased to (hemodialysis patients; [1]): < 500 µg/L | transferrin saturation decreased to (hemodialysis patients; [1]): < 25% | ferritin values lowered to (hemodialysis patients; Patient C (hemodialysis), iron infusions omitted, within 3 weeks): 500 µg/L | ferritin value decreased to (anemia patients; [2]): < 500 µg/L | transferrin receptor value increased to (anemia patients; [2]): above 1500 μg/l | transferrin saturation decreased to (anemia patients; [2]): < 25% | ferritin values lowered to (anemia patients; [3]): < 500 µg/L | transferrin receptor values increased to (anemia patients; [3]): above 1500 μg/l
